Measurements published in ChEMBL document CHEMBL3813660, “Kinetic and X-ray crystallographic investigations of substituted 2-thio-6-oxo-1,6-dihydropyrimidine-benzenesulfonamides acting as carbonic anhydrase inhibitors” (Bioorg Med Chem, 2016).

Tests used:
Carbonic anhydrase 2 = Carbonic anhydrase 2 (Homo sapiens, UniProt P00918); assay: Inhibition of human carbonic anhydrase 2 preincubated for 6 hrs at 4 degC measured for 10 to 100 secs by stopped-flow carbon dioxide hydration assay
Carbonic anhydrase 12 = Carbonic anhydrase 12 (Homo sapiens, UniProt O43570); assay: Inhibition of human carbonic anhydrase 12 preincubated for 6 hrs at 4 degC measured for 10 to 100 secs by stopped-flow carbon dioxide hydration assay
Carbonic anhydrase 1 = Carbonic anhydrase 1 (Homo sapiens, UniProt P00915); assay: Inhibition of human carbonic anhydrase 1 preincubated for 6 hrs at 4 degC measured for 10 to 100 secs by stopped-flow carbon dioxide hydration assay
Carbonic anhydrase 9 = Carbonic anhydrase 9 (Homo sapiens, UniProt Q16790); assay: Inhibition of human carbonic anhydrase 9 catalytic domain preincubated for 6 hrs at 4 degC measured for 10 to 100 secs by stopped-flow carbon dioxide hydration assay

Carbonic anhydrase 12, sequence (O43570 whole entry): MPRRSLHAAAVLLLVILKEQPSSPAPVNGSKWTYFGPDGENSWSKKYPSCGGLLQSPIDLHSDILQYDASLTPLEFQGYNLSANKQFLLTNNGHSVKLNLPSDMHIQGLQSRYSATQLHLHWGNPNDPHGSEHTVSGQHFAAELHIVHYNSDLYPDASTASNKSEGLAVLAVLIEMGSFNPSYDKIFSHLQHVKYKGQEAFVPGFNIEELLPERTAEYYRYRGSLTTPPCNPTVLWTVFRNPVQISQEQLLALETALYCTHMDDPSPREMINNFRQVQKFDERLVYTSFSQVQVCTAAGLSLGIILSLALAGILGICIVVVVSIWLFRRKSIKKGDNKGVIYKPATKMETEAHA
Carbonic anhydrase 1, sequence (P00915 whole entry, the tested form may be a part): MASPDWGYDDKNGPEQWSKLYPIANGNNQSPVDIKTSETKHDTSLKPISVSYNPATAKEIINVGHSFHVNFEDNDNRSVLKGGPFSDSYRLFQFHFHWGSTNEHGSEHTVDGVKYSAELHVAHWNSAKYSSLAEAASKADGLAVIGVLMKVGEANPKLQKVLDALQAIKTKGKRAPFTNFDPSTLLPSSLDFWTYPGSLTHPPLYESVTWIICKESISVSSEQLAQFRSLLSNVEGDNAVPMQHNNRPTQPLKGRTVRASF

Row | SMILES | Ki (Carbonic anhydrase 2) [nM] | Ki (Carbonic anhydrase 12) [nM] | Ki (Carbonic anhydrase 1) [nM] | Ki (Carbonic anhydrase 9) [nM]
1 | CC(Sc1nc(-c2ccc(Cl)cc2)c(C#N)c(=O)[nH]1)C(=O)Nc1ccc(S(N)(=O)=O)cc1 (stereo not given) | 5 | 9.2 | 83 | –
2 | CC(Sc1nc(-c2ccc(Cl)c(F)c2)c(C#N)c(=O)[nH]1)C(=O)Nc1ccc(S(N)(=O)=O)cc1 (stereo not given) | 6.1 | 9.1 | 34 | 37
3 | CCC(Sc1nc(-c2cccc(OC)c2)c(C#N)c(=O)[nH]1)C(=O)Nc1ccc(S(N)(=O)=O)cc1 (stereo not given) | 6.4 | 24 | 32 | 24
4 | CC(Sc1nc(-c2ccc(Cl)c(Cl)c2)c(C#N)c(=O)[nH]1)C(=O)Nc1ccc(S(N)(=O)=O)cc1 (stereo not given) | 5.1 | 7.8 | 48 | 19
